Test results from patent publication US20240025885A1, “TRIAZINE DERIVATIVES AND METHODS OF USE THEREOF” (priority 2022, published 2024).
Where two headings read alike, the source gives them in different places.

Legend:
in vivo [1] = experiment: in vivo
Method: At Model Pharmacokinetic Properties Testing
(§1) Oral administration: the compound was administered with a volume ratio of Solutol:PEG400:Tween80:Saline=10:40:2:48 at a dose of 10 mg/kg. blood was taken continuously from the fundus venous plexus at 0.25 h, 0.5 h, 1 h, 2 h, 4 h, 8 h, 10 h, 12 h, and 24 h after administration in EP tubes containing EDTA, centrifuged at 8000 rpm/min for 5 min and then the upper layer of plasma was frozen at −80° C. and stored for LC-MS/MS analysis.
(§2) Intravenous administration: the compound was administered with a volume ratio of 10% DMSO/30% PEG400/60% water at a dose of 1 mg/kg). At 0.0833 h, 0.25 h, 0.5 h, 1 h, 2 h, 4 h, 8 h, 12 h and 24 h after drug administration, blood was serially collected from the fundus venous plexus in EP tubes containing EDTA, centrifuged at 8000 rpm/min for 5 min and then the upper layer of plasma was frozen at −80° C. and stored for LC-MS/MS analysis.
The pharmacokinetic parameters were calculated using WinNonlin software base on the blood concentration-time data obtained from the tests.

[2] = tested on: hCoV-19/USA/Chicago IL/2022 (BA.5.2); experiment: In vitro antiviral activity against SARS-CoV-2 BA.5.2 in Calu-3 cells (NP ELISA, percent virus reduction); type: cell-based; conditions: Severe acute respiratory syndrome coronavirus 2, Calu-3, 48 h
in vivo [3] = conditions: crab-eating monkey, plasma
Method: Crab-Eating Monkey Pharmacokinetic Properties Testing
as §1, with “of 2” for “of 10”, “mg/kg. The” for “mg/kg.”, “continuously” for “continuously from the fundus venous plexus”, “12 h” for “12 h,”, “after drug” for “after”, “5 min,” for “5 min”
as §2, with “with” for “with a volume ratio of”, “The blood was taken continuously at” for “At”, “administration” for “administration, blood was serially collected from the fundus venous plexus”
The pharmacokinetic parameters were calculated from the blood concentration-time data obtained from the tests using WinNonlin software.

[4] = tested on: SARS-CoV-2 Omicron hCoV-19/USA/MD HP20874/2021 (B.1.1.529) strain; experiment: In vitro antiviral activity against SARS-CoV-2 Omicron B.1.1.529 in Calu-3 cells (NP ELISA, percent virus reduction); type: cell-based; conditions: Severe acute respiratory syndrome coronavirus 2, Calu-3, 48 h
[5] = intravenous, 1 mg/kg, read-out: Intravenous injection AUClast
[6] = oral, 2 mg/kg, read-out: Oral AUClast

Structure (SMILES)	AUC(0-t) (in vivo [1]; iv, 1 mg/kg) [ng·h/mL]	AUC(0-t) (in vivo [1]; po, 10 mg/kg) [ng·h/mL]	EC50 [2] [nM]	AUC(0-t) (in vivo [3]; [5]) [ng·h/mL]	AUC(0-t) (in vivo [3]; [6]) [ng·h/mL]	EC50 [4] [nM]
Cn1cc2cc(Nc3nc(=O)n(Cc4cocn4)c(=O)n3Cc3cc(F)c(F)cc3F)c(Cl)cc2n1 [Compound 26]	7790	14100				
[2H]c1c2cc(Nc3nc(=O)n(Cc4ccon4)c(=O)n3Cc3cc(F)c(F)cc3F)c(Cl)cc2nn1C [Compound 107]	21400	209000				
[2H]C([2H])([2H])n1cc2cc(Nc3nc(=O)n(Cc4cscn4)c(=O)n3Cc3cc(F)c(F)cc3F)c(Cl)cc2n1 [Compound 16]	7040	139000	22	3680	10100	16
[2H]C([2H])([2H])n1cc2cc(Nc3nc(=O)n(Cc4cocn4)c(=O)n3Cc3cc(F)c(F)cc3F)c(Cl)cc2n1 [Compound 18]				4890	10400	
Cn1cc2cc(Nc3nc(=O)n(Cc4ncsn4)c(=O)n3Cc3cc(F)c(F)cc3F)c(Cl)cc2n1 [Compound 78]			59			67
[2H]C([2H])([2H])n1cc2cc(Nc3nc(=O)n(Cc4ccon4)c(=O)n3Cc3cc(F)c(F)cc3F)c(Cl)cc2n1 [Compound 17]	25400	189000	16	41000	64300	30
O=c1nc(Nc2cc3cn(CCO)nc3cc2Cl)n(Cc2cc(F)c(F)cc2F)c(=O)n1Cc1cscn1 [Compound 97]	5670	7660				
[2H]C([2H])([2H])n1cc2cc(Nc3nc(=O)n(Cc4cscn4)c(=O)n3Cc3cc(F)c(F)c(F)c3)c(Cl)cc2n1 [Compound 40]	9880	134000	40	36500	62400	23
O=c1nc(Nc2cc3cn(CCO)nc3cc2Cl)n(Cc2cc(F)c(F)cc2F)c(=O)n1Cc1ccon1 [Compound 70]			21	4870	9880	18
[2H]C([2H])([2H])n1cc2cc(Nc3nc(=O)n(Cc4ccon4)c(=O)n3Cc3cc(F)c(F)c(F)c3)c(Cl)cc2n1 [Compound 41]	26500	234000	33	40600	63300	31
Cn1cc2cc(Nc3nc(=O)n(Cc4nccs4)c(=O)n3Cc3cc(F)c(F)cc3F)c(Cl)cc2n1 [Compound 71]			45			34
